Measured values reported in EPA's ToxValDB 9.5 (doi:10.2903/j.efsa.2010.1718).
Values after ≈ are worked out from the molar mass of the structure shown.

Tests used:
Bibionidae = conditions: chronic/long-term; duration: 28 days
Aphidius rhopalosiphi = test: LR50; higher = less toxic; conditions: not reported; mortality
Pimephales promelas = conditions: chronic/long-term; duration: 265 days; growth
Lepomis macrochirus = conditions: acute; duration: 96 hours; mortality
Daphnia magna = conditions: chronic/long-term; duration: 21 days; reproduction
Oryctolagus sp. = conditions: reproduction developmental; body weight
Apis mellifera = conditions: acute; duration: 48 hours; dermal; mortality

CC(Oc1ccc(Oc2ccc(Cl)cc2Cl)cc1)C(=O)O (stereo not drawn) [Diclofop]
NOEC (Tagia sp.; chronic/long-term, duration: 56 days): 100 mg/kg
NOEC (Bibionidae): 10 mg/L

COC(=O)C(C)Oc1ccc(Oc2ccc(Cl)cc2Cl)cc1 (racemic) [(+-)-Diclofop-methyl]
LR50 (Aphidius rhopalosiphi): 30.1 g/ha
NOEC (Anas platyrhynchos; reproductive): 25 mg/kg-day
LC50 (Anas platyrhynchos; short-term, oral, feed, mortality): > 1100 mg/kg-day
LC50 (Colinus virginianus; acute, oral, diet, mortality): > 2880 mg/kg-day
LD50 (Colinus virginianus; acute, oral, mortality): > 2250 mg/kg-day
NOEC (Colinus virginianus; reproduction developmental): 20 mg/kg-day
LC50 (Tagia sp.; acute, duration: 14 days, mortality): > 1000 mg/kg
NOEC (Pimephales promelas): 0.015 mg/L
LC50 (Lepomis macrochirus): 0.15 mg/L (≈ 0.44 µM)
NOEC (Daphnia magna): 0.081 mg/L
LD50 (Rattus norvegicus; acute, oral, mortality): 512 mg/kg-day
NOEL (Rattus norvegicus; chronic): 7.8 mg/kg-day
LOAEL (Rattus norvegicus; chronic, duration: 2 years, histopathology: nonneoplastic): 0.2 mg/kg-day
NOAEL (Rattus norvegicus; reproduction developmental, no effects): 3 mg/kg-day
NOAEL (Oryctolagus sp.): 0.3 mg/kg-day
LD50 (Apis mellifera): > 100 µg/piece
